Measurements reported in ChEMBL document CHEMBL5725787, “Fused pyrimidine compound or salt thereof” (2017).

Biological target: Tyrosine-protein kinase BTK (Homo sapiens, UniProt Q06187)
Test: BTK Inhibitory Activity: With regard to the setting of the conditions for a method for measuring the inhibitory activity of a compound against BTK kinase activity in vitro, it is described in the consumable reagent supplies price list for LabChip (registered trademark) series of PerkinElmer, Inc. that FL-PEPTIDE 2 corresponds to a substrate peptide for the measurement of BTK kinase activity. Therefore, FL-PEPTIDE 2 was used as a substrate. The purified recombinant human BTK protein used in the test was purchased from Carna Biosciences, Inc.With regard to the measurement of the inhibitory activity of the compounds, firstly, the compounds of the present invention were diluted stepwise with dimethyl sulfoxide (DMSO). Subsequently, BTK protein, a substrate peptide (final concentration was 1 μM), magnesium chloride (final concentration was 10 mM), ATP (final concentration was 45 μM), and a DMSO solution of the compounds of the present invention (final concentration of DMSO was 5%) were added to a buffer solution for kinase reaction (20 mM HEPES (pH 7.5), 2 mM dithiotheitol, 0.01% Triton X-100), and after the solution was incubated for 40 minutes at 25° C., a kinase reaction was carried out. The reaction was terminated by adding EDTA thereto in order to obtain a final concentration of 30 mM. […]

Tyrosine-protein kinase BTK, sequence (Q06187 whole entry): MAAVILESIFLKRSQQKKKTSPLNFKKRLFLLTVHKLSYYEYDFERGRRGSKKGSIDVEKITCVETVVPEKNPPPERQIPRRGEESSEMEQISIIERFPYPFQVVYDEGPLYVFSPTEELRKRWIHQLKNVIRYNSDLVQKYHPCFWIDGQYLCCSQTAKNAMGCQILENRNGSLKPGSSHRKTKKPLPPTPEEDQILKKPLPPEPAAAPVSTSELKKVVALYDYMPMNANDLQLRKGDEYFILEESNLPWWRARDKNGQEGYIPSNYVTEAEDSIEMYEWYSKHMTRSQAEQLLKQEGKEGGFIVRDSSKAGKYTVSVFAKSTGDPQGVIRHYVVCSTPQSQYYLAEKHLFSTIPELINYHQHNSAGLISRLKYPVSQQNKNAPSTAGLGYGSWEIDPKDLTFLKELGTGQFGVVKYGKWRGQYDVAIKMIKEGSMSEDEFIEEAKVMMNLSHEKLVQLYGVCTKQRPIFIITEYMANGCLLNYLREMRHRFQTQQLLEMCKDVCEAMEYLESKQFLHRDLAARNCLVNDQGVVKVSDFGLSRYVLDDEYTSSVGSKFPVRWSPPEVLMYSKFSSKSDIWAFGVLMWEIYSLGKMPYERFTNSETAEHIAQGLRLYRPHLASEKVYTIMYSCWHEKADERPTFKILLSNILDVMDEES

- IC50: 0.442 nM
SMILES: C=CC(=O)N1CC[C@@H](n2nc(C(=O)Nc3nc4cc(-c5ccccc5)ccc4o3)c3c(N)ncnc32)C1
